Measurements from US7160732B2, “Fluorescein-based metal sensors, and methods of making and using the same” (Massachusetts Institute of Technology, priority 2000, dated 2007).
Blank lines part the entries; values can stand above or below the molecule they belong to.

Key:
[1] = Quantum yield of fluorescence, metal free and Zn^2+ bound ligand; assay type: physicochemical; settings: 50 mM PIPES, 100 mM KCl
Source text: Quantum yield, Φ, may be obtained by comparison of the integrated area of the corrected emission spectrum of the sample with that of a reference solution. A preferred reference solution is a solution of fluorescein in 0.1 N NaOH, quantum efficiency 0.95. The concentration of the reference is adjusted to match the absorbance, Abs, of the test sample. The quantum yields may be calculated using the following equation: […]
The quantum yields of fluorescence were obtained by comparison of the integrated area of the corrected emission spectrum of the sample with that of a solution of fluorescein in 0.1 N NaOH, quantum efficiency 0.95. The concentration of the reference was adjusted to match the absorbance of the test sample. The quantum efficiency of the metal free ligand was measured using dilute sample of Formula 16 dye (˜1×10^−6 M, Abs≦0.1) in 10 mM PIPES, 100 mM KCl and 50 μM EDTA, pH=7.0. The quantum efficiency of the metal bound ligand was measured using a dilute sample of Formula 16 (˜8×10^−7 M, Abs≦0.1) in 10 mM PIPES, 100 mM KCl and 100 μM ZnCl2, pH=7.0. Emission for Formula 16 was integrated from 496 to 600 nm with excitation at 492 nm. The quantum yields were calculated with the following equation.
(§1) Under pseudo physiological conditions (50 mM PIPES, 100 mM KCl) at pH 7 in the presence of EDTA to scavenge advantageous metal ions, Formula 16 has a quantum yield of 0.25. The quantum yield increases to 0.92 in the presence of 25 μM Zn^2+. The excitation maximum of Formula 16 shifts from 498 nm (ε=36.8×10^3 M^−1cm^−1) to 490 nm (ε=44.9×10^3 M^−1cm^−1) upon Zn^2+ complexation. The slight hypsochromatic shift in the absorption wavelength is indicative of the coordination of the donor group (phenol) to Zn^2+. Since the phenol is incorporated in the π-system of the fluorophore, coordination to a metal would be expected to perturb the electronic structure of the system and produce a shift in the excitation wavelength. […] Under most conditions, cadmium concentrations are much lower than zinc concentrations in biological samples.

[2] = Excitation maximum and extinction coefficient, free and upon Zn^2+ complexation; assay type: physicochemical; settings: pH 7
Protocol: (§2) Absorption spectra were recorded on a Hewlett Packard 8453A diode array spectrophotometer under the control of a Pentium II-based PC running the Windows NT ChemStation software package, or a Cary 1E scanning spectrophotometer under the control of a Pentium PC running the manufacturer supplied software package. Spectra were routinely acquired at 25° C., maintained by a circulating water bath in 1 cm path length quartz cuvettes with a volume of 1.0 or 3.5 mL.
as §1

[3] = pH dependent fluorescence (apparent fluorescence pKa); assay type: physicochemical
Protocol: The apparent fluorescence pKa was measured by plotting the integrated area of the emission spectrum against the pH recorded from pH=12.5–2.5. A 1 μM solution of the ligand of Formula 16 (10 mLs) containing ˜1 mM KOH and 100 mM KCl was adjusted to pH 12.5 and the UV-vis and fluorescence spectra were recorded. The pH was lowered in steps of ΔpH=0.5 with the addition of appropriate amounts of 6 N, 2 N, 0.5 N, 1 N, 0.1 N and 0.01 N HCl recording the absorption and emission spectra at each pH interval. The volume of the solution was controlled so the overall change in volume was <2%. Emission for the fluorescein-based ligand of […] was integrated from 500 to 700 nm. The resulting integrated emission areas were normalized, plotted against pH, and fit with the following nonlinear equation to calculate the pKa values. In the equation, ΔF1max and ΔF2max are the maximum fluorescence changes associated with the corresponding pKa values at the pH at which the maximum occurs.
The fluorescence of the Formula 16 ligand is enhanced by protons. […] At high pH, the magnitude of Zn^2+-induced fluorescent enhancement is more dramatic, increasing over 200-fold at pH 12.

[4] = Fluorescence response to Zn^2+
Protocol: Fluorescence spectra were recorded on a Hitachi F-3010 spectrofluorimeter under the control of a Pentium-based PC running the SpectraCalc software package. Excitation was provided by a 150 W Xe lamp (Ushio Inc.) operating at a current of 5 A. All spectra were normalized for excitation intensity via a rhodamine quantum counter, and emission spectra were normalized by the manufacturer-supplied correction curves. Spectra were routinely acquired at 25° C., maintained by a circulating water bath in 1 cm×1 cm quartz cuvettes using 3 nm slit widths and a 240 nm/min scan speed. Fluorescence emission measurements were also acquired in a 1 cm×1 cm quartz cell using a Spex Fluorolog-2 instrument with 1 nm bandwidth slits. All spectra were corrected for emission intensity using the manufacturer-supplied photomultiplier curves. Spectra were routinely acquired at 25° C., maintained by a circulating water bath. […]
The fluorescence of the Formula 16 ligand is enhanced by protons. […]
Under pseudo physiological conditions (50 mM PIPES, 100 mM KCl) at pH 7 in the presence of EDTA to scavenge advantageous metal ions, Formula 57 has a quantum yield of 0.06. […] The fluorescence of Formula 57 also appears to be pH dependent. These fluorescence results are preliminary and are not intended to limit the scope of the invention in any way.

[5] = Lactone formation under aqueous conditions; assay type: physicochemical; settings: even at high [Zn^2+] (200 μM)
Protocol: Binding of the first Zn^2+ more efficiently interrupts the PET process and increases the band gap between the S0 and S1 energy levels. The Kd1 is lower than that of DPA because of the additional coordination by the phenolic oxygen. […] (200 μM). These conclusions are preliminary and are not intended to limit the scope of the invention in any way.

[6] = Fluorescence Zn^2+ binding titration (Kd) in Ca^2+/EDTA/Zn^2+ buffers; settings: 1 mM EDTA, 2 mM Ca^2+, 0–1 mM total Zn^2+
Protocol: The first Kd associated with Zn^2+ binding was measured by a fluorescence titration as described previously. Spectra of the fluorescence of the ligand of Formula 16 were acquired by exciting at 490 nm and collecting and integrating from 500–575 nm. The measurements were performed in triplicate to ensure accuracy of the Kd value.
(§3) The fluorescent increase and binding affinity for Zn^2+ were characterized using a dual-metal single-ligand buffer system comprised of 1 mM EDTA, 2 mM Ca^2+ (or Mg^2+ up to 5 mM) and 0–1 mM total Zn^2+. […] The quantum yield of Formula 16 increases by ˜3.7-fold, and the integrated emission increases 6.0-fold.
(§4) The Zn^2+ affinity of Formula 16 was determined by performing these measurements in triplicate using different Ca^2+/EDTA/Zn^2+ buffers (FIG. 3, left panel). The fluorescence response of the ligand of Formula 16 to the solutions was measured by excitation of the solution at 490 nm with 0.25 nm slit width and detecting the emission over 500 to 575 nm. The buffer solutions contained 100 mM KCl, 50 mM PIPES, pH=7.2 mM Ca2+, 1 mM EDTA and varying free Zn2+concentrations of 0, 0.172, 0.424, 0.787, 1.32, 2.11, 3.34, 5.60, 10.2, and 24.1 nM. […] The fluorescence response fits to a Hill coefficient of 1, consistent with the formation of a 1:1 ligand:Zn^2+ complex responsible for the enhancement.

[7] = test system: intracellular Zn^2+ in COS-7 cells; assay: Detection of intracellular Zn^2+ by fluorescence microscopy; assay type: cell-based
Protocol: (§5) The ability of a fluorescein-based ligand of Formula 16 to act as a sensor for intracellular Zn^2+ was tested in COS-7 (FIG. 5) and HeLa cells (FIG. 6), using a Formula 16. Both cell types were treated with 5 μM of the fluorescein-based ligand of Formula 16 for one hour at 37° C. […] Similar observations have been made using quinoline-based Zn^2+ probes in undifferentiated mammalian cells.
(§6) Intracellular Zn^2+ concentrations were increased by incubating the cells with Zn^2+ in the presence of pyrithione, a Zn^2+ ionophore. […] Available Zn^2+ was decreased by treatment with the membrane permeable Zn^2+-chelator, TPEN.

[8] = test system: intracellular Zn^2+ in HeLa cells; assay: as above; assay type: cell-based
Protocol: as §5, §6

[9] = Absorption titration, second Zn^2+ binding event (Kd2); settings: physiologically relevant pH
Protocol: as §2
The binding of Zn^2+ by a fluorescein-based ligand of Formula 16 is accompanied by changes in the absortion spectra. […] Addition of greater than one equivalent of Zn^2+ produces small changes in the absorption spectra of the ligand. The change fits to a Kd2 of 10±2 μM (486 nm), and decreases to 7.5±2.5 μM (508 nm).

[10] = Fluorescence response to other metal ions
Protocol: Fluorescence spectra were recorded on a Hitachi F-3010 spectrofluorimeter under the control of a Pentium-based PC running the SpectraCalc software package. Excitation was provided by a 150 W Xe lamp (Ushio Inc.) operating at a current of 5 A. All spectra were normalized for excitation intensity via a rhodamine quantum counter, and emission spectra were normalized by the manufacturer-supplied correction curves. Spectra were routinely acquired at 25° C., maintained by a circulating water bath in 1 cm×1 cm quartz cuvettes using 3 nm slit widths and a 240 nm/min scan speed. Fluorescence emission measurements were also acquired in a 1 cm×1 cm quartz cell using a Spex Fluorolog-2 instrument with 1 nm bandwidth slits. All spectra were corrected for emission intensity using the manufacturer-supplied photomultiplier curves. Spectra were routinely acquired at 25° C., maintained by a circulating water bath.
as §1

[11] = Zn^2+ affinity of reference chelator complexes; assay type: binding; settings: pH 7
Protocol: as §3
as §4, with “nM. The measurements indicate that Formula 16 has a Kd of 0.5±0.1 nM (mean ±esd), obtained by a hyperbolic fit to the plot of the area under each fluorescence peak versus the Zn2+ concentration at which it was measured (FIG. 3, right panel).” for “nM.”

[12] = pH 7, in the presence of EDTA (metal free)
[13] = fit of integrated emission versus pH, 100 mM KCl

- quantum yield ([1]; pH 7, in the presence of 25 μM Zn^2+): 0.92
- quantum yield [1, 12]: 0.25
- excitation maximum ([2]; before Zn^2+ complexation): 498 nm
- ε at excitation maximum ([2]; before Zn^2+ complexation): 36800 M⁻¹ cm⁻¹
- excitation maximum ([2]; upon Zn^2+ complexation): 490 nm
- ε at excitation maximum ([2]; upon Zn^2+ complexation): 44900 M⁻¹ cm⁻¹
- pH of maximum fluorescence [3]: ~5.5
- apparent pKa,1 [3, 13]: 3.9
- apparent pKa,2 [3, 13]: 9.4
- fluorescence at high pH ([3]; pH>12): almost completely quenched
- lactone formation [5]: no lactone formation
- increase of integrated emission on Zn^2+ binding [6]: 6.0 fold
- increase of quantum yield on Zn^2+ binding [6]: ~3.7 fold
Structure (SMILES): O=C1OC2(c3ccccc31)c1ccc(O)c(CN(Cc3ccccn3)Cc3ccccn3)c1Oc1c2ccc(O)c1CN(Cc1ccccn1)Cc1ccccn1 [Formula 16]
- selectivity of the fluorescence response ([4]; compared with other metal ions): Zn^2+ selective
- Zn^2+-induced fluorescent enhancement ([4]; pH 12): over 200 fold
- fluorescent staining of cells ([7]; 5 μM ligand, one hour at 37° C., particularly perinuclear region (Golgi)): bright fluorescent staining
- fluorescent signal after Zn^2+ chelation ([7]; TPEN): decreased the fluorescent signal
- fluorescent signal after raising intracellular Zn^2+ ([7]; Zn^2+ with pyrithione): increase in the fluorescent signal
- fluorescent staining of cells ([8]; 5 μM ligand, one hour at 37° C.): bright fluorescent staining
- fluorescent signal after Zn^2+ chelation ([8]; TPEN): decreased the fluorescent signal
- fluorescent signal after raising intracellular Zn^2+ ([8]; Zn^2+ with pyrithione): increase in the fluorescent signal
- fluorescence change at the second binding event [9]: not associated with a measurable change in fluorescence
- change in fluorescence intensity ([10]; Ca^2+): no measurable change in intensity
- effect on fluorescence ([10]; Cd^2+): increase in fluorescence
- effect on fluorescence ([10]; Co^2+): quench fluorescence
- effect on fluorescence ([10]; Cu^2+): quench fluorescence
- effect on fluorescence ([10]; Fe^2+): quench fluorescence
- change in fluorescence intensity ([10]; Mg^2+): no measurable change in intensity
- effect on fluorescence ([10]; Mn^2+): quench fluorescence
- effect on fluorescence ([10]; Ni^2+): quench fluorescence

Structure (SMILES): [Zn+2].c1ccc(CNCc2ccccn2)nc1 [[Zn(DPA)]^2+]
- weaker binding than the ligand of Formula 16 [11]: approximately 2 orders of magnitude

- quantum yield [1, 12]: 0.39
- quantum yield ([1]; pH 7, in the presence of Zn^2+ (concentration not given)): 0.87
- excitation maximum ([2]; upon Zn^2+ complexation): 507 nm
- ε at excitation maximum ([2]; upon Zn^2+ complexation): 84000 M⁻¹ cm⁻¹
Structure (SMILES): O=C1OC2(c3ccccc31)c1cc(Cl)c(O)c(CN(Cc3ccccn3)Cc3ccccn3)c1Oc1c2cc(Cl)c(O)c1CN(Cc1ccccn1)Cc1ccccn1 [Formula 31]
